Test results reported in PubChem BioAssay (NCI).
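Growth conditions: 96-well plates. Treatment: test compound, 48 hours, 5 concentrations. Analysis: linear interpolation between bracketing concentrations; unreached endpoints set to highest concentration. GI50: concentration for 50% inhibition of growth. TGI denotes the concentration required for complete inhibition of growth.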

What was measured:
Test in all cases: DTP human tumour cell line panel, 48 h
OVCAR-4 ovarian = tested on: OVCAR-4 ovarian
OVCAR-5 ovarian = tested on: OVCAR-5 ovarian
IGROV1 ovarian = tested on: IGROV1 ovarian
A498 renal = tested on: A498 renal
ACHN renal = tested on: ACHN renal
NCI-H460 lung = tested on: NCI-H460 lung
NCI-H522 lung = tested on: NCI-H522 lung
786-0 renal = tested on: 786-0 renal
MOLT-4 leukemia = tested on: MOLT-4 leukemia
SNB-78 CNS = tested on: SNB-78 CNS

FC(F)(F)c1cc(-c2ncn(/C=C\c3nnco3)n2)cc(C(F)(F)F)c1 was tested, and the GI50 (OVCAR-4 ovarian) was 0.0442 µM, the GI50 (OVCAR-5 ovarian) was 0.267 µM and the TGI (OVCAR-5 ovarian) was > 63.3 µM. For the same molecule, the GI50 (IGROV1 ovarian) was 0.676 µM, the TGI (IGROV1 ovarian) was > 100 µM and the GI50 (A498 renal) was < 0.0128 µM. The TGI (A498 renal) was 0.0639 µM, the GI50 (ACHN renal) was 0.163 µM and the TGI (ACHN renal) was > 96.2 µM. For the same molecule, the GI50 (NCI-H460 lung) was 0.0384 µM, the GI50 (NCI-H522 lung) was 0.0381 µM and the TGI (NCI-H522 lung) was 0.445 µM. The GI50 (786-0 renal) was 0.0869 µM, the TGI (786-0 renal) was > 32.3 µM and the GI50 (MOLT-4 leukemia) was 0.0284 µM. It also gave a TGI (MOLT-4 leukemia) of 0.938 µM.
For C=C1c2[nH]c3ccccc3c2CC(C(=O)O)N1C(O)c1ccc(S(=O)(=O)O)cc1 (configuration not stated), the TGI (OVCAR-4 ovarian) was > 100 µM, the TGI (OVCAR-5 ovarian) was > 100 µM and the TGI (A498 renal) was > 100 µM. For the same molecule, the TGI (ACHN renal) was > 100 µM, the TGI (SNB-78 CNS) was > 100 µM and the TGI (NCI-H460 lung) was > 100 µM. For the same molecule, the TGI (NCI-H522 lung) was > 100 µM, the TGI (786-0 renal) was > 100 µM and the TGI (MOLT-4 leukemia) was > 100 µM.
CCCCCCc1cc2cc(-c3csc(/C=C/c4ccccc4)n3)c(=O)oc2cc1O showed a GI50 (OVCAR-4 ovarian) of 3.56 µM, a TGI (OVCAR-4 ovarian) of 13.7 µM and a GI50 (OVCAR-5 ovarian) of 40.8 µM. For the same molecule, the TGI (OVCAR-5 ovarian) was > 100 µM, the GI50 (IGROV1 ovarian) was 15.9 µM and the TGI (IGROV1 ovarian) was 38.3 µM. For the same molecule, the GI50 (A498 renal) was 14.4 µM, the TGI (A498 renal) was 30.5 µM and the GI50 (ACHN renal) was 4.19 µM. For the same molecule, the TGI (ACHN renal) was 15.2 µM, the GI50 (NCI-H460 lung) was 7.01 µM and the TGI (NCI-H460 lung) was 21.7 µM. The GI50 (NCI-H522 lung) was 3.93 µM, the TGI (NCI-H522 lung) was 17.9 µM and the GI50 (786-0 renal) was 4.62 µM. For the same molecule, the TGI (786-0 renal) was 17.1 µM, the GI50 (MOLT-4 leukemia) was 3.72 µM and the TGI (MOLT-4 leukemia) was 15.1 µM.
With O=C(O)c1ccc(Oc2nc3ccccc3s2)cc1 the TGI (OVCAR-4 ovarian) was > 100 µM, the TGI (OVCAR-5 ovarian) was > 100 µM and the TGI (IGROV1 ovarian) was > 100 µM. For the same molecule, the TGI (A498 renal) was > 100 µM, the TGI (ACHN renal) was > 100 µM and the TGI (NCI-H460 lung) was > 100 µM. For the same molecule, the TGI (NCI-H522 lung) was > 100 µM, the TGI (786-0 renal) was > 100 µM and the TGI (MOLT-4 leukemia) was > 100 µM.
